Results published in patent US10828578B2, “Reversible control of solution solubility using functionalized nanoparticles” (Massachusetts Institute of Technology, priority 2016, dated 2020).
In brackets after ≈: the same amount, converted by molar mass.

Tests used:
[1] = Solubility and metastable zone width of D-mannitol in water and water-ethanol mixtures (Crystal16); assay type: physicochemical; details: with an increase in the amount of ethanol (85-15, 75-25, 50-50% wt/wt water-ethanol)
Description: According to the results of D-mannitol in water and water-ethanol mixtures, the solubility decreases with an increase in the amount of ethanol in water-ethanol mixtures. In order to know the required amount of functionalized nanoparticles and the operating region for crystallization, the MSZW of D-mannitol is important. For the samples of D-mannitol in the mixtures of 85-15 and 75-25% wt/wt of water-ethanol, the cloud point lies above the saturation temperature of D-mannitol in pure water. This means that, for the mixtures of 85-15 and 75-25% water-ethanol, and the solutes with a concentration of 193 mg/ml at 20° C., spontaneous nucleation will not occur because they will remain in solution. However, these experiments helped to determine the optimum operating supersaturation levels as well as the amount of antisolvent required to crystallize compounds at a given concentration. […]
The solubility and metastable zone width (MSZW) of D-mannitol was measured in pure DI water and DI water-ethanol mixtures at different concentrations by adding a known amount of D-mannitol and 1 mL of solvent or solvent mixtures respectively to a 1.5 mL glass vial. […] The temperature at which the suspension turned into a clear solution was recorded and assumed to be the saturation temperature. […] The temperatures at which the crystals are detected are assumed to be a cloud point. […]

physchem [2] = details: water
Description: The method development involved the study of methanol and acetonitrile as organic modifiers, pH and flow-rate using a Chromolith RP-18e (150 mm×4.6 mm I.D.) column. After comparing the performance the optimum analysis of these compounds was achieved using 50 mM acetate buffer (pH 5.0)-acetonitrile (80:20, v/v) as mobile phase, 1 mL min-1 flow-rate and UV detection at maximum absorbance wavelength of 250 nm.

[3] = Solubility enhancement in water with glycolic acid functionalized iron oxide nanoparticles (HPLC); details: 2 ml suspension 20 g/L in water + 200 mg glycolic acid IONPs; part converted to 4-aminophenol
Description: The clear solution was analyzed using HPLC in order to determine the final concentration.

physchem [4] = details: water, thermodynamic from solid
Description: A saturated solution of ibuprofen in water was prepared at room temperature. […] An additional 20 mg of ibuprofen was added to 5 mL of the saturated solution. Then, 200 mg of iron oxide nanoparticles that had been functionalized with glycolic acid were added and mixed. Clear samples of solution were then taken from the slurry and analyzed with HPLC.

[5] = NaCl concentration change in water after crystallization with functionalized gold nanoparticles (digital density meter); assay type: physicochemical; details: 1.8 nm gold nanoparticles with ethanol group, seeded, 16 hour stirring
Description: The antisolvent crystallization of NaCl is the best example of the influence of agglomeration on the final product purity. Though the crystals are crystallized from a mother liquor containing as much as 50% weight antisolvent (on a solvent basis), the uptake of the antisolvent is as low as 30 ppm. In the present study, functionalized nanoparticles were used to crystallize NaCl from a water solution. NaCl is highly soluble in water and slightly soluble in ethanol. In the case of NaCl crystallization, water was used as a solvent and ethanol was used as an antisolvent. NaCl was crystallized in water using 1.8 nm functionalized nanoparticles with an ethanol group at the open terminal. […] After 4 hours the sample was seeded with NaCl crystals and the sample was crystallized only after 16 hour of stirring. The initial and final concentration of NaCl was measured using the Digital Density Meter DMA4500. This instrument is used for accurate measurements of solvent density necessary for the concentration measurements. […] The change in concentration after crystallization measured using the digital density meter was 27 mg.

Compound: OC[C@@H](O)[C@@H](O)[C@H](O)[C@H](O)CO [D-mannitol]
- solubility of D-mannitol in water-ethanol mixtures [1]: decreases

Compound: O=[N+]([O-])c1ccc(O)cc1 [4-nitrophenol]
- solubility thermodynamic at 24 h (physchem [2]; 20 °C, thermodynamic from solid): 13 mg/mL (≈ 93.5 mM)
- solubility at 24 h (physchem [2]; 25 °C): 13 mg/mL (≈ 93.5 mM)
- concentration in clear solution after IONP addition [3]: 16500 µg/mL

Compound: CC(C)Cc1ccc(C(C)C(=O)O)cc1 (stereo not drawn) [ibuprofen]
- solubility (physchem [4]): 0.009 mg/mL (≈ 0.0436 mM)

Compound: [Cl-].[Na+] [NaCl, Sodium chloride]
- change in concentration after crystallization [5]: 27 mg
